Data: patent publication US6737383B1, “Herbicidal oxadiazolidines” (priority 1999, dated 2004)

Tests used:
bedstraw = test: Test B pre/postemergence bedstraw; format: in vivo, Galium aparine
How it was run: (§1)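 Response is a visual 0-to-10 score relative to untreated plants, where 0 means no effect and 10 means complete control, taken twelve to sixteen days after application. Treatments went onto soil at planting and onto foliage of 1- to 4-leaf plants, using a surfactant-containing non-phytotoxic solvent.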

blackgrass = test: Test B pre/postemergence blackgrass; format: in vivo, Alopecurus myosuroides
How it was run: as §1

surinam grass = test: Test B pre/postemergence surinam grass; format: in vivo, Brachiaria decumbens
How it was run: as §1

corn = test: Test B pre/postemergence corn; format: in vivo, Zea mays
How it was run: as §1

crabgrass = test: Test B pre/postemergence crabgrass; format: in vivo, Digitaria sanguinalis
How it was run: as §1

giant foxtail = test: Test B pre/postemergence giant foxtail; format: in vivo, Setaria faberii
How it was run: as §1

morningglory = test: Test B pre/postemergence morningglory; format: in vivo, Ipomoea hederacea
How it was run: as §1

pigweed = test: Test B pre/postemergence pigweed; format: in vivo, Amaranthus retroflexus; conditions: for Plant response rating, Redroot pigweed: Postemergence
How it was run: as §1

soybean = test: Test B pre/postemergence soybean; format: in vivo, Glycine max; conditions: for Plant response rating, Soybean: Postemergence; for Plant response rating, Soybean / Soybean plant response rating: scale of 0 to 10 where 0 is no effect and 10 is complete control
How it was run: as §1

velvetleaf = test: Test B pre/postemergence velvetleaf; format: in vivo, Abutilon theophrasti; conditions: for Plant response rating, Velvetleaf: Postemergence
How it was run: as §1

wheat = test: Test B pre/postemergence wheat; format: in vivo, Triticum aestivum; conditions: for Plant response rating, Wheat: Postemergence
How it was run: as §1

wild oat = test: Test B pre/postemergence wild oat; format: in vivo, Avena fatua; conditions: for Plant response rating, Wild oats: Postemergence
How it was run: as §1

purple nutsedge = test: Test B pre/postemergence purple nutsedge; format: in vivo, Cyperus rotundus
How it was run: as §1

rice = test: Test B flood test rice; format: in vivo, Oryza sativa
How it was run: (§2)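 Each value is a visual injury score relative to controls, with 10 meaning complete control and 0 no effect. Evaluation took place twelve to sixteen days after the 2-leaf-stage plants were treated and kept in the greenhouse.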

smallflower flatsedge = test: Test B flood test smallflower flatsedge; format: in vivo, Cyperus difformis
How it was run: as §2

duck salad = test: Test B flood test duck salad; format: in vivo, Heteranthera limosa
How it was run: as §2

[1] = Postemergence, Rate 62 g/ha, scale of 0 to 10, 0 is no effect, 10 is complete control
[2] = Postemergence, Rate 500 g/ha, scale of 0 to 10 where 0 is no effect and 10 is complete control
[3] = Preemergence, Rate 62 g/ha, scale 0 to 10 (0 no effect, 10 complete control)
[4] = Preemergence, Rate 125 g/ha, scale of 0 to 10 where 0 is no effect and 10 is complete control
[5] = Preemergence, Rate 500 g/ha, scale of 0 to 10 where 0 is no effect and 10 is complete control
[6] = Rate 250 g/ha, Postemergence, scale of 0 to 10 where 0 is no effect and 10 is complete control
[7] = Postemergence, Rate 125 g/ha, scale of 0 to 10 where 0 is no effect and 10 is complete control
[8] = Rate 125 g/ha, scale of 0 to 10 where 0 is no effect and 10 is complete control
[9] = Rate 500 g/ha, scale of 0 to 10 where 0 is no effect and 10 is complete control
[10] = Rate 250 g/ha, scale of 0 to 10 where 0 is no effect and 10 is complete control
[11] = Rate 62 g/ha, flood test species, Pre-emergence, visual evaluation after twelve to sixteen days
[12] = Rate 125 g/ha, under heading Pre-emergence, flood test species, visual evaluation after twelve to sixteen days
[13] = Rate 250 g/ha, Pre-emergence (flood test species), scale 0 to 10, 0 is no effect, 10 is complete control
[14] = Rate 500 g/ha, Pre-emergence section of Table B, 0 to 10 scale (0 no effect, 10 complete control)

CC(C)N(C(=O)n1oc(=O)n(CC2CCC2)c1=O)c1ccccc1 [Compound 580]
Bedstraw plant response rating (bedstraw; [1]): 3
Plant response rating, Bedstraw (bedstraw; [2]): 9
Bedstraw plant response rating (bedstraw; [3]): 0
Bedstraw plant response rating (bedstraw; [4]): 4
Bedstraw plant response rating (0 to 10 scale) (bedstraw; Preemergence, Rate 250 g/ha): 6
Bedstraw plant response rating (bedstraw; [5]): 6
Plant response rating, Bedstraw (bedstraw; [6]): 0
Blackgrass plant response rating (blackgrass; [1]): 2
Plant response rating, Blackgrass (blackgrass; [7]): 6
Plant response rating, Blackgrass (blackgrass; [2]): 7
Blackgrass plant response rating (blackgrass; [3]): 0
Blackgrass plant response rating (blackgrass; [4]): 3
Blackgrass plant response rating (0 to 10 scale) (blackgrass; Preemergence, Rate 250 g/ha): 7
Blackgrass plant response rating (blackgrass; [5]): 7
Plant response rating, Blackgrass (blackgrass; [6]): 7
B. signalgrass plant response rating (surinam grass; [1]): 0
Plant response rating, B. signalgrass (surinam grass; [7]): 2
Plant response rating, B. signalgrass (surinam grass; [2]): 8
B. signalgrass plant response rating (surinam grass; [3]): 2
B. signalgrass plant response rating (surinam grass; [4]): 6
B. signalgrass plant response rating (0 to 10 scale, 0 is no effect, 10 is complete control) (surinam grass; Preemergence, Rate 250 g/ha): 6
B. signalgrass plant response rating (surinam grass; [5]): 9
Plant response rating, B. signalgrass (surinam grass; [6]): 5
Corn plant response rating (corn; [1]): 0
Plant response rating, Corn (corn; [7]): 0
Plant response rating, Corn (corn; [2]): 0
Corn plant response rating (corn; [3]): 0
Corn plant response rating (corn; [4]): 0
Corn plant response rating (0 to 10 scale) (corn; Preemergence, Rate 250 g/ha): 2
Corn plant response rating (corn; [5]): 5
Plant response rating, Corn (corn; [6]): 0
Crabgrass plant response rating (crabgrass; [1]): 0
Plant response rating, Crabgrass (crabgrass; [7]): 3
Crabgrass plant response rating (crabgrass; [3]): 6
Crabgrass plant response rating (crabgrass; [4]): 6
Crabgrass plant response rating (0 to 10 scale) (crabgrass; Preemergence, Rate 250 g/ha): 9
Crabgrass plant response rating (crabgrass; [5]): 9
Plant response rating, Crabgrass (crabgrass; [6]): 9
Giant foxtail plant response rating (giant foxtail; [1]): 0
Plant response rating, Giant foxtail (giant foxtail; [7]): 6
Plant response rating, Giant foxtail (giant foxtail; [2]): 8
Giant foxtail plant response rating (giant foxtail; [3]): 9
Giant foxtail plant response rating (giant foxtail; [4]): 9
Giant foxtail plant response rating (0 to 10 scale) (giant foxtail; Preemergence, Rate 250 g/ha): 10
Giant foxtail plant response rating (giant foxtail; [5]): 10
Plant response rating, Giant foxtail (giant foxtail; [6]): 8
Morningglory plant response rating (morningglory; [1]): 7
Plant response rating, Morningglory (morningglory; [7]): 7
Plant response rating, Morningglory (morningglory; [2]): 10
Morningglory plant response rating (morningglory; [3]): 0
Morningglory plant response rating (morningglory; [4]): 0
Morningglory plant response rating (0 to 10 scale) (morningglory; Preemergence, Rate 250 g/ha): 0
Morningglory plant response rating (morningglory; [5]): 0
Plant response rating, Morningglory (morningglory; [6]): 8
Plant response rating, Redroot pigweed (pigweed; [8]): 5
Plant response rating, Redroot pigweed (pigweed; [9]): 9
Redroot pigweed plant response rating (pigweed; [3]): 9
Redroot pigweed plant response rating (pigweed; [4]): 10
Redroot pigweed plant response rating (0 to 10 scale) (pigweed; Preemergence, Rate 250 g/ha): 10
Redroot pigweed plant response rating (pigweed; [5]): 10
Plant response rating, Redroot pigweed (pigweed; [10]): 5
Plant response rating, Soybean (soybean; Rate 125 g/ha): 4
Plant response rating, Soybean (soybean; Rate 500 g/ha): 4
Soybean plant response rating (soybean; Preemergence, Rate 125 g/ha): 0
Soybean plant response rating (0 to 10 scale) (soybean; Preemergence, Rate 250 g/ha): 0
Soybean plant response rating (soybean; Preemergence, Rate 500 g/ha): 0
Plant response rating, Soybean (soybean; Rate 250 g/ha): 4
Plant response rating, Velvetleaf (velvetleaf; [8]): 2
Plant response rating, Velvetleaf (velvetleaf; [9]): 3
Velvetleaf plant response rating (velvetleaf; [3]): 0
Velvetleaf plant response rating (velvetleaf; [4]): 0
Velvetleaf plant response rating (0 to 10 scale) (velvetleaf; Preemergence, Rate 250 g/ha): 2
Velvetleaf plant response rating (velvetleaf; [5]): 5
Plant response rating, Velvetleaf (velvetleaf; [10]): 2
Plant response rating, Wheat (wheat; [8]): 0
Plant response rating, Wheat (wheat; [9]): 3
Wheat plant response rating (wheat; [3]): 0
Wheat plant response rating (wheat; [4]): 0
Wheat plant response rating (0 to 10 scale) (wheat; Preemergence, Rate 250 g/ha): 2
Wheat plant response rating (wheat; [5]): 5
Plant response rating, Wheat (wheat; [10]): 0
Plant response rating, Wild oats (wild oat; [8]): 0
Plant response rating, Wild oats (wild oat; [9]): 7
Wild oats plant response rating (wild oat; [3]): 0
Wild oats plant response rating (wild oat; [4]): 0
Wild oats plant response rating (0 to 10 scale) (wild oat; Preemergence, Rate 250 g/ha): 2
Wild oats plant response rating (wild oat; [5]): 5
Plant response rating, Wild oats (wild oat; [10]): 3
Nutsedge plant response rating (purple nutsedge; [1]): 0
Plant response rating, Nutsedge (purple nutsedge; [7]): 0
Nutsedge plant response rating (purple nutsedge; [3]): 0
Nutsedge plant response rating (purple nutsedge; [4]): 0
Nutsedge plant response rating (0 to 10 scale) (purple nutsedge; Preemergence, Rate 250 g/ha): 0
Nutsedge plant response rating (purple nutsedge; [5]): 5
Plant response rating, Rice (0 to 10 scale, 0 is no effect, 10 is complete control) (rice; [11]): 0
Rice plant response rating (0 to 10 scale, 0 is no effect, 10 is complete control) (rice; [12]): 0
Rice plant response rating (rice; [13]): 0
Rice plant response rating (rice; [14]): 0
Plant response rating, S. Flatsedge (0 to 10 scale, 0 is no effect, 10 is complete control) (smallflower flatsedge; [11]): 0
S. Flatsedge plant response rating (0 to 10 scale, 0 is no effect, 10 is complete control) (smallflower flatsedge; [12]): 0
S. Flatsedge plant response rating (smallflower flatsedge; [13]): 0
S. Flatsedge plant response rating (smallflower flatsedge; [14]): 0
Plant response rating, Ducksalad (0 to 10 scale, 0 is no effect, 10 is complete control) (duck salad; [11]): 0
Ducksalad plant response rating (0 to 10 scale, 0 is no effect, 10 is complete control) (duck salad; [12]): 0
Ducksalad plant response rating (duck salad; [13]): 0
Ducksalad plant response rating (duck salad; [14]): 0
